In patent US20190047966A1, “NOVEL COMPOUND AND PHARMACOLOGICALLY ACCEPTABLE SALT THEREOF” (MEIJI SEIKA PHARMA CO., LTD., priority 2016, published 2019):
Where a name gives a salt, the structure may show the parent alone.

Experiments:
[1] = target: T1, human histamine H4 receptor (Homo sapiens, UniProt Q9H3N8); assay: Evaluation of Human H4 Receptor Affinity ([3H]histamine binding); conditions: inhibition constant Ki, CHO-K1 membrane preparation, read-out: Evaluation of H4 Receptor Affinity
T1 construct: purchased PerkinElmer Inc; host or cells: CHO-K1
Method in brief: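 Membranes from CHO-K1 cells expressing human H4 receptor incubated with 8.2 nM [3H]histamine and compound for 90 min at 25 °C in 50 mM Tris-HCl pH 7.4, 1.25 mM EDTA, then filtered and counted. Nonspecific binding defined with 1.0 μM histamine; Ki from IC50 by Cheng-Prusoff using Kd 5.7 nM.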

[2] = target: human histamine H1 receptor (Homo sapiens, UniProt P35367); assay: Evaluation of Human H1 Receptor Affinity ([3H]pyrilamine binding); set-up: purchased PerkinElmer Inc; host or cells: CHO-K1; conditions: inhibition constant Ki, CHO-K1 membrane preparation
human histamine H1 receptor, sequence (P35367 whole entry): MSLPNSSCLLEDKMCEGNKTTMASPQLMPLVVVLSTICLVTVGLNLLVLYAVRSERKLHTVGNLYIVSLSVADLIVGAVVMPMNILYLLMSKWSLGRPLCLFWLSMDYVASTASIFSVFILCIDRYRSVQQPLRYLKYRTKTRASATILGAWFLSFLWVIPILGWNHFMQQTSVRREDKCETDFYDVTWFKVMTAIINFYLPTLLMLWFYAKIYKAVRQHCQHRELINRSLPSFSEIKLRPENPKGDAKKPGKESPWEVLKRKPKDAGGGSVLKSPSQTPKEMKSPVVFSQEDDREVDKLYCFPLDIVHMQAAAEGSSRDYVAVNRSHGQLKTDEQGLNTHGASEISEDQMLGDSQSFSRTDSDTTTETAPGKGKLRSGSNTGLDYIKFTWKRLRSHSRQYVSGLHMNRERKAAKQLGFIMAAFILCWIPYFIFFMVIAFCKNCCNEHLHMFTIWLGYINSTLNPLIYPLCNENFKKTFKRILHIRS
Method in brief: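 Ki values are Cheng-Prusoff conversions of IC50 (Kd 1.1 nM) from radioligand displacement of 1.2 nM [3H]pyrilamine, with 1.0 μM pyrilamine defining nonspecific binding.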

Compound	Ki [1] [nM]	Ki [2] [nM]
CCS(=O)(=O)NCCCCN1CCN(c2nc(N)nc3c2CCc2cc(OCc4ccccc4)ccc2-3)CC1 [Example 105, N-(4-(4-(2-amino-8-(benzyloxy)-5,6-dihydrobenzo[h]quinazolin-4-yl)piperazin-1-yl)butyl)ethanesulfonamide bis(trifluoroacetate)]	100 to 500	< 100
CC(C)(C(=O)O)c1ccc(OCCN2CCN(c3nc(N)nc4c3CCc3cc(OCc5ccc(Cl)cc5)ccc3-4)CC2)cc1 [Example 162, 2-(4-(2-(4-(2-amino-8-((4-chlorobenzyl)oxy)-5,6-dihydrobenzo[h]quinazolin-4-yl)piperazin-1-yl)ethoxy)phenyl)-2-methylpropanoic acid]	100 to 500	100 to 500
COC(=O)c1ccc(OCCN2CCN(c3nc(N)nc4c3CCc3cc(OCc5ccc(Cl)cc5)ccc3-4)CC2)cc1 [19(a), methyl 4-(2-(4-(2-amino-8-((4-chlorobenzyl)oxy)-5,6-dihydrobenzo[h]quinazolin-4-yl)piperazin-1-yl)ethoxy)benzoate]	100 to 500	100 to 500
COc1ccc(S(=O)(=O)Nc2ccc3c(c2)CCc2c-3nc(N)nc2N2CCN(C)CC2)cc1 [Example 53, N-(2-amino-4-(4-methylpiperazin-1-yl)-5,6-dihydrobenzo[h]quinazolin-8-yl)-4-methoxybenzenesulfonamide]	100 to 500	< 100
Nc1nc2c(c(N3CCN(CCOCc4cc(OCc5ccccc5)no4)CC3)n1)CCc1cc(OCc3ccc(Cl)cc3)ccc1-2 [Example 116, 4-(4-(2-((3-(benzyloxy)isoxazol-5-yl)methoxy)ethyl)piperazin-1-yl)-8-((4-chlorobenzyl)oxy)-5,6-dihydrobenzo[h]quinazolin-2-amine]	100 to 500	< 100
C[C@]1(C(=O)O)C[C@@H](OCCN2CCN(c3nc(N)nc4c3CCc3cc(OCc5ccc(Cl)cc5)ccc3-4)CC2)C1 [26(b), cis-3-(2-(4-(2-amino-8-((4-chlorobenzyl)oxy)-5,6-dihydrobenzo[h]quinazolin-4-yl)piperazin-1-yl)ethoxy)-1-methylcyclobutane-1-carboxylic acid]	100 to 500	< 100
Nc1nc2c(c(N3CCN(CCCCOc4ccc(C(=O)O)cc4)CC3)n1)CCc1cc(OCc3ccc(Cl)cc3)ccc1-2 [Example 134, 4-(4-(4-(2-amino-8-((4-chlorobenzyl)oxy)-5,6-dihydrobenzo[h]quinazolin-4-yl)piperazin-1-yl)butoxy)benzoic acid hydrochloride]	100 to 500	< 100
CC(OCCOCCN1CCN(c2nc(N)nc3c2CCc2cc(OCc4ccc(Cl)cc4)ccc2-3)CC1)C(=O)O (stereo not shown) [Example 121, 2-(2-(2-(4-(2-amino-8-((4-chlorobenzyl)oxy)-5,6-dihydrobenzo[h]quinazolin-4-yl)piperazin-1-yl)ethoxy)ethoxy)propanoic acid dihydrochloride]	100 to 500	< 100
CC(C)(C(=O)O)[C@H]1C[C@@H](OCCN2CCN(c3nc(N)nc4c3CCc3cc(OCc5ccc(Cl)cc5)ccc3-4)CC2)C1 [Example 172, cis-2-(3-(2-(4-(2-amino-8-((4-chlorobenzyl)oxy)-5,6-dihydrobenzo[h]quinazolin-4-yl)piperazin-1-yl)ethoxy)cyclobutyl)-2-methylpropanoic acid]	< 100	< 100
CNC(=O)COCCOCCN1CCN(c2nc(N)nc3c2CCc2cc(OCc4ccccc4)ccc2-3)CC1 [Example 108, 2-(2-(2-(4-(2-amino-8-(benzyloxy)-5,6-dihydrobenzo[h]quinazolin-4-yl)piperazin-1-yl)ethoxy)ethoxy)-N-methylacetamide]	< 100	< 100
trans-4-((2-(4-(2-amino-8-((4-cyanobenzyl)oxy)-5,6-dihydrobenzo[h]quinazolin-4-yl)piperazin-1-yl)ethoxy)cyclohexane-l-carboxylic acid [Example 213]	100 to 500	< 100
CCOC(=O)C1(C#N)CCC(COCCN2CCN(c3nc(N)nc4c3CCc3cc(OCc5ccc(Cl)cc5)ccc3-4)CC2)CC1 (stereo not drawn) [159(a), ethyl cis- or trans-4-((2-(4-(2-amino-8-((4-chlorobenzyl)oxy)-5,6-dihydrobenzo[h]quinazolin-4-yl)piperazin-1-yl)ethoxy)methyl)-1-cyanocyclohexane-1-carboxylate]	100 to 500	< 100
CCOC(=O)[C@]1(C)C[C@@H](OCCN2CCN(c3nc(N)nc4c3CCc3cc(OCc5ccc(Cl)cc5)ccc3-4)CC2)C1 [25(a), ethyl trans-3-(2-(4-(2-amino-8-((4-chlorobenzyl)oxy)-5,6-dihydrobenzo[h]quinazolin-4-yl)piperazin-1-yl)ethoxy)-1-methylcyclobutane-1-carboxylate]	100 to 500	< 100
N#CC1(C(=O)O)CCC(COCCN2CCN(c3nc(N)nc4c3CCc3cc(OCc5ccc(Cl)cc5)ccc3-4)CC2)CC1 (stereo not drawn) [159(b), cis- or trans-4-((2-(4-(2-amino-8-((4-chlorobenzyl)oxy)-5,6-dihydrobenzo[h]quinazolin-4-yl)piperazin-1-yl)ethoxy)methyl)-1-cyanocyclohexane-1-carboxylic acid hydrochloride]	< 100	< 100

Further lines, results first:

Ki [1] [nM]	Ki [2] [nM]	Compound
< 100	< 100	CNC(=O)COCCOCCN1CCN(c2nc(N)nc3c2CCc2cc(OCc4ccc(Cl)cc4)ccc2-3)CC1 [Example 188, 2-(2-(2-(4-(2-amino-8-((4-chlorobenzyl)oxy)-5,6-dihydrobenzo[h]quinazolin-4-yl)piperazin-1-yl)ethoxy)ethoxy)-N-methylacetamide dihydrochloride]
< 100	< 100	Nc1nc2c(c(N3CCN(CCOC4CC5C(C4)C5C(=O)O)CC3)n1)CCc1cc(OCc3ccc(OC(F)(F)F)cc3)ccc1-2 (mixture of isomers) [Example 35, 3-(2-(4-(2-amino-8-((4-(trifluoromethoxy)benzyl)oxy)-5,6-dihydrobenzo[h]quinazolin-4-yl)piperazin-1-yl)ethoxy)bicyclo[3.1.0]hexane-6-carboxylic acid]
< 100	< 100	Nc1nc2c(c(N3CCN(CCO[C@H]4C[C@@H](C(=O)O)C4)CC3)n1)CCc1cc(OCc3ccc(OC(F)(F)F)c(F)c3)ccc1-2 [Example 206, cis-3-(2-(4-(2-amino-8-((3-fluoro-4-(trifluoromethoxy)benzyl)oxy)-5,6-dihydrobenzo[h]quinazolin-4-yl)piperazin-1-yl)ethoxy)cyclobutane-1-carboxylic acid]
< 100	< 100	Nc1nc2c(c(N3CCN(CCOC[C@H]4CC[C@@H](C(=O)O)CC4)CC3)n1)CCc1cc(OCc3ccc(OC(F)(F)F)cc3)ccc1-2 [Example 27, cis-4-((2-(4-(2-amino-8-((4-(trifluoromethoxy)benzyl)oxy)-5,6-dihydrobenzo[h]quinazolin-4-yl)piperazin-1-yl)ethoxy)methyl)cyclohexane-1-carboxylic acid dihydrochloride]
< 100	100 to 500	CN1CCN(c2nc(N)nc3c2CCCc2ccc(OCc4ccccc4)cc2-3)CC1 [Example 202, 10-(benzyloxy)-4-(4-methylpiperazin-1-yl)-6,7-dihydro-5H-benzo[6,7]cyclohepta[1,2-d]pyrimidin-2-amine]
< 100	< 100	Nc1nc2c(c(N3CCN(CCOCc4nc(C(=O)O)cs4)CC3)n1)CCc1cc(OCc3ccc(Cl)cc3)ccc1-2 [135(b), 2-((2-(4-(2-amino-8-((4-chlorobenzyl)oxy)-5,6-dihydrobenzo[h]quinazolin-4-yl)piperazin-1-yl)ethoxy)methyl)thiazole-4-carboxylic acid dihydrochloride]
< 100	< 100	Nc1nc2c(c(N3CCN(CCOCC4CNC4)CC3)n1)CCc1cc(OCc3ccc(OC(F)(F)F)cc3)ccc1-2 [38(b), 4-(4-(2-(azetidin-3-ylmethoxy)ethyl)piperazin-1-yl)-8-((4-(trifluoromethoxy)benzyl)oxy)-5,6-dihydrobenzo[h]quinazolin-2-amine]
< 100	< 100	Nc1nc2c(c(N3CCNCC3)n1)CCc1cc(OCc3ccc(Cl)cc3)ccc1-2 [Example 4, 8-((4-chlorobenzyl)oxy)-4-(piperazin-1-yl)-5,6-dihydrobenzo[h]quinazolin-2-amine]
< 100	< 100	CN1CCN(c2nc(N)nc3c2CCOc2cc(OCc4ccccc4)ccc2-3)CC1 [Example 204, 9-(benzyloxy)-4-(4-methylpiperazin-1-yl)-5,6-dihydrobenzo[2,3]oxepino[4,5-d]pyrimidin-2-amine]
< 100	< 100	Nc1nc2c(c(N3CCN(CCO[C@H]4C[C@@H](C(=O)O)C4)CC3)n1)CCc1cc(OCc3ccc(OC(F)(F)F)cc3F)ccc1-2 [Example 205, cis-3-(2-(4-(2-amino-8-((2-fluoro-4-(trifluoromethoxy)benzyl)oxy)-5,6-dihydrobenzo[h]quinazolin-4-yl)piperazin-1-yl)ethoxy)cyclobutane-1-carboxylic acid]
< 100	100 to 500	CN(C)C1CCN(c2nc(N)nc3c2CCc2cc(OCc4ccccc4)ccc2-3)CC1 [Example 104, 8-(benzyloxy)-4-(4-(dimethylamino)piperidin-1-yl)-5,6-dihydrobenzo[h]quinazolin-2-amine]
< 100	< 100	Nc1nc2c(c(N3CCN(CCOCCOCC(=O)O)CC3)n1)CCc1cc(OCc3ccc(F)cc3)ccc1-2 [Example 124, 2-(2-(2-(4-(2-amino-8-((4-fluorobenzyl)oxy)-5,6-dihydrobenzo[h]quinazolin-4-yl)piperazin-1-yl)ethoxy)ethoxy)acetic acid]
